Consider 8 compounds from patent US4483853A, “Amino acid isomers, their production and their medicinal use” (priority 1981, dated 1984).

Structures are written as SMILES. Like-named read-outs stand apart in the source and are kept apart here.

The test system of experiment [1] is kainate-induced excitation. The conditions noted are these: cited from earlier work.
The subject of experiment [2] is sound-induced seizures. As to the kind of experiment: Sound-induced (audiogenic) seizures in DBA/2 mice, i.c.v. or i.p. (WR, clonus, tonus). The experiment is classed as in vivo. The conditions noted are these: for activity (in words) / Minimum dose to suppress WR / ED50 Clonus / ED50 Tonus / ED50 WR: DBA/2 mice, i.c.v.; for Minimum dose to suppress WR: 45 minutes before sound, P < .01; for ED50 WR: wild running phase; for order of potency: congeneric series of phosphonic acid analogues, i.c.v. DBA/2 mice. How it is done:
(§1) Dicarboxylic amino acids and their thio-analogues were tested as potential anticonvulsants in animal models of epilepsy by being administered intracerebroventricularly (i.c.v.) or intraperitoneally (i.p.) in mice (either DBA/2 mice showing sound-induced seizures, or Swiss S mice given a just-convulsant dose of pentylenetetrazol, s.c.) or intravenously in baboons, Papio papio, with photosensitive epilepsy. A close correlation was found between the ability of antagonists to block excitation due to NMDA (N-methyl-D-aspartic acid) and suppression of sound-induced seizures following i.c.v. injection in DBA/2 mice. […] Following systemic administration in mice 2-amino-7-phosphonoheptanoic acid was active against sound-induced seizures (0.1-0.33 mmoles/kg, i.p.) and against pentylenetetrazol seizures (1.2 mmoles/kg). It is also active against photosensitive epileptic responses in baboons (1.0 mmoles/kg, i.v.)
(i) Anticonvulsant activity of excitatory amino acid antagonists in DBA/2 mice
DBA/2 mice were chosen as being an inbred strain in which, within a critical age range, a fixed sequence of seizure response can be induced by a loud sound. Groups of DBA/2 mice (N=6 to 10), 21 to 28 days old, were injected intracerebroventricularly under light ether anesthesia with 10 μl of drug solution or phosphate buffer alone (pH 7.3). Auditory stimulation (electric bell generating 109 dB at mouse level) was applied 45 minutes later for 60 seconds or until tonic extension was observed and the incidence and timing of the phases of the seizure response were recorded. These included an initial wild running phase (WR) followed by myocolonus, tonic flexion, and extension and, frequently, respiratory arrest. Seizure response was scored as described in Eur. J. Pharmacol 59, 75 (1979), and comparisons between groups of control and drug-treated animals were made by using Fisher's exact probability test. Successive doses, with a geometric factor of 3, were tested until an adequate log dose-response curve (three to six points) could be constructed for each antagonist for each phase of the seizure response, and ED50 values were graphically determined. A rank order of anticonvulsant potency was allocated to each antagonist for comparison with iontophoretic data; O denoting no activity and X to XXXX denoting increasingly marked activity.
(§2) Studies of audiogenic seizures were performed as described in Example(i). For intraperitoneal administration the antagonist was injected with 0.1 ml of saline 45 minutes before testing. Antagonism of pentylenetetrazol (PTZ: threshold) seizures was studied in random-bred Swiss mice (Tuck T/O strain: 28 days old; 20 to 23 g). Mice in groups (N=10) received pentylenetetrazol (85 mg/kg: 0.85 percent solution in 0.9 percent sodium chloride) subcutaneously in a loose fold of skin on the back of the neck 45 minutes after intracerenroventricular or intraperitoneal administration of drug or vehicle. During the 30-minute observation period sustained rhythmic clonic jerking with tonic spasms occured in 90 to 100 percent of control mice. The incidence and timing of clonic episodes was recorded with absence of sustained clonic jerking (no episode of 5 seconds duration or longer) being defined as protection. The ED50 values and 95 percent fiducial limits were estimated by using the method of moving averages (by the method described in Biometrics 8, 249 (1952) with data from four successive dose levels.

Experiment [3] relates to NMDA. To be noted: cited from earlier work.
Experiment [4] concerns quisqualate receptor. The conditions noted are these: cited from earlier work.
Experiment [5] relates to photosensitive epileptic responses. As to the kind of experiment: Photosensitive epilepsy in baboons. The class given is in vivo, Papio papio. The conditions noted are these: i.v. How it is done:
as §1

Experiment [6] deals with pentylenetetrazol seizures. Kind of experiment: Pentylenetetrazol-induced seizures in Swiss S mice. The class given is in vivo. How it is done:
as §1, §2

The test system of experiment [7] is Kainic acid-excited receptors. As to the kind of experiment: Block of kainic acid-excited receptors. The conditions noted are these: CNS receptors.
For experiment [8], the system named is ibotenic acid-excited receptors. As to the kind of experiment: Block of ibotenic acid-excited receptors. The conditions noted are these: CNS receptors.

Consider `N[C@H](CCC(=O)NCC(=O)O)C(=O)O` [γ-D-Glutamylglycine, reference compound], for which the “antagonism of kainate-induced excitation” value in experiment [1] is “antagonist of both kainate and NMDA-induced excitation”. Moreover, in experiment [2], the “activity (in words)” value was “equipotent with 2-amino-5-phosphonoheptanoic acid”, the “Minimum dose to suppress WR” value came to 0.1 μ mole, the “ED50 Clonus” value worked out at 0.046 μ mole and the “ED50 Tonus” value was found to be 0.054 μ mole. Also, the “ED50 WR” value in experiment [2] was found to be 0.058 μ mole. In addition, the “antagonism of NMDA-induced excitation” value in experiment [3] was “antagonist of both kainate and NMDA-induced excitation”.

`NC(CCCP(=O)(O)O)C(=O)O` (racemic) [(±)-2-Amino-5-phosphonopentanoic acid]: in experiment [2], the order of potency is listed as 2-amino-7-phosphonoheptanoate>2-amino-5-phosphonopentanoic acid>2-amino-6-phosphonohexanoic acid>2-amino-4-phosphonobutyric acid, the “Minimum dose to suppress WR” value amounted to 0.1 μ mole, the “ED50 Clonus” value is on record as 0.022 μ mole and the “ED50 Tonus” value came out at 0.025 μ mole. The “ED50 WR” value in experiment [2] is recorded as 0.046 μ mole.

For the compound `NC(CCCCCP(=O)(O)O)C(=O)O` (single isomer, unassigned; (+)) [(+)-2-Amino-7-phosphonoheptanoic acid], in experiment [2], the “Minimum dose to suppress WR” value worked out at 0.033 μ mole, the “ED50 Clonus” value is 0.0018 μ mole, the “ED50 Tonus” value was determined as 0.0018 μ mole and the “ED50 WR” value is on record as 0.0135 μ mole.

On to `CCOC(=O)CC[C@H](N)C(=O)OCC` [Glutamic acid diethylester, reference compound], for which, in experiment [4], the quisqualate receptor antagonism entry is given as “quisqualate receptor antagonist”. Also, the “activity (in words)” value in experiment [2] was “inactive”.

Take `NC(CCP(=O)(O)O)C(=O)O` (racemic) [(±)-2-Amino-4-phosphonobutyric acid, reference compound]: the order of potency in experiment [2] is reported as 2-amino-7-phosphonoheptanoate>2-amino-5-phosphonopentanoic acid>2-amino-6-phosphonohexanoic acid>2-amino-4-phosphonobutyric acid.

In general, ED50 refers to the dose that gives a 50% effect, or the effect in half of the subjects. On to `NC(CCCCCP(=O)(O)O)C(=O)O` (racemic) [(±)-2-Amino-7-phosphonoheptanoic acid, (±)2-amino-7-phosphonoheptanoic acid], for which, in experiment [5], the “active against photosensitive epileptic responses, dose” value amounted to 1.0 mmol/kg. Also, the 50% effective dose (ED50) in experiment [6] (Mus musculus, ip, intraperitoneal, pentylenetetrazol 85 mg/kg s.c., read-out: ED50 V PTZ (95% fiducial limits)) stood at 1180 µmol/kg. Besides, the “ED50 V PTZ (95% fiducial limits)” value in experiment [6] (intracerebroventricular, pentylenetetrazol 85 mg/kg s.c.) is 0.64 (0.19-2.13) μ mole. Besides, in experiment [6] (mice, systemic administration), the “active against pentylenetetrazol seizures, dose” value came to 1.2 mmol/kg. Moreover, in experiment [2] (Mus musculus, ip, 0.75 h, read-out: Minimum dose to suppress WR), the minimal effective dose came to 330 µmol/kg. Besides, the ED50 in experiment [2] (Mus musculus, ip, read-out: ED50 Clonus) was determined as 40 µmol/kg. Also, the median effective dose (ED50) in experiment [2] (Mus musculus, ip, read-out: ED50 Tonus) was 40 µmol/kg. Also, the ED50 in experiment [2] (Mus musculus, ip, read-out: ED50 WR) turned out to be 180 µmol/kg. In experiment [2], the order of potency is listed as 2-amino-7-phosphonoheptanoate>2-amino-5-phosphonopentanoic acid>2-amino-6-phosphonohexanoic acid>2-amino-4-phosphonobutyric acid, the “Minimum dose to suppress WR” value is 0.01 μ mole, the “ED50 Tonus” value came to 0.0008 μ mole and the “ED50 WR” value was 0.004 μ mole. Moreover, the “active against sound-induced seizures, dose” value in experiment [2] (mice, i.p.) fell in the range of 0.1 to 0.33 mmol/kg.

Take `N[C@H](CCCCCP(=O)(O)O)C(=O)O` [(-)-2-Amino-7-phosphonoheptanoic acid]: the “blocking of Kainic acid-excited receptors” value in experiment [7] is given as “not a blocker of Kainic acid-excited receptors”. Further, in experiment [2], the “Minimum dose to suppress WR” value turned out to be 0.0033 μ mole, the “ED50 Clonus” value is reported as 0.0008 μ mole, the “ED50 Tonus” value was determined as 0.0008 μ mole and the “ED50 WR” value is reported as 0.0022 μ mole. Further, in experiment [8], the “blocking of ibotenic acid-excited receptors” value is recorded as “blocker of ibotenic acid-excited receptors”.

On to `NC(CCCCP(=O)(O)O)C(=O)O` (racemic) [(±)-2-Amino-6-phosphonohexanoic acid], for which, in experiment [2], the order of potency was 2-amino-7-phosphonoheptanoate>2-amino-5-phosphonopentanoic acid>2-amino-6-phosphonohexanoic acid>2-amino-4-phosphonobutyric acid, the “Minimum dose to suppress WR” value worked out at 0.25 μ mole, the “ED50 Clonus” value was determined as 0.14 μ mole and the “ED50 Tonus” value was determined as 0.15 μ mole. Besides, the “ED50 WR” value in experiment [2] is 0.17 μ mole.
